In patent US12139520B2 (priority 2020, dated 2024) one finds EC50 data, which are given here for seven compounds.

As a reminder, the EC50 is the concentration at which the effect is half-maximal.

Numbered stars: 1 amine (or outer) side, 2 acyl side, 3 side chain; on linkers, the order of the positions; unused ones are H or OH. Bridge positions count the residues as written; N and C are the ends. Peptide text beside a SMILES is read from it. * marks the point of attachment. C20 diacid = O=C(O)CCCCCCCCCCCCCCCCCCC(=O)*; γGlu = O=C(O)[C@H](CCC(=O)[*:2])N[*:1]

The assay has as its target T1, hAMY3 receptor (Homo sapiens, UniProt O60896+P30988).
T1 sequence (P30988 25-474): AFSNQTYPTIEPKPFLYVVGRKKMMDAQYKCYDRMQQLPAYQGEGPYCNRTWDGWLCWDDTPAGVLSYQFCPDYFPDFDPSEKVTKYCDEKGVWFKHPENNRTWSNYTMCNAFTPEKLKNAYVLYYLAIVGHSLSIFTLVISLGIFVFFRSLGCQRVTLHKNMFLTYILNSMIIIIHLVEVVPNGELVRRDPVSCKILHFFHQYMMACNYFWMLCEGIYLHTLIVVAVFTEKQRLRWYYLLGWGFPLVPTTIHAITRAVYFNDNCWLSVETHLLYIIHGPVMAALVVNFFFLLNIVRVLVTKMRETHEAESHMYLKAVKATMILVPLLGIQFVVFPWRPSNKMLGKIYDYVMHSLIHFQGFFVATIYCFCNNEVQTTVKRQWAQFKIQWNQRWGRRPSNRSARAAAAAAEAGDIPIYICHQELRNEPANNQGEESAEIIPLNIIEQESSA
T1 sequence (O60896 24-148 partner): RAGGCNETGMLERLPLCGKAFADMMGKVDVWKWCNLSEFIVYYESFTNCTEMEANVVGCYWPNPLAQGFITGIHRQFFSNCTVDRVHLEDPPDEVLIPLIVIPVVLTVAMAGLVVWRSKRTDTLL
The assay is described as follows: cAMP assay for in vitro receptor activation, hAMY3-R. To be noted: cAMP assay, hAMY3 receptor; read-out: hAMY3R EC50. The class given is cell-based. In short, it runs like this:
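Graded compound concentrations were applied for 30 min at room temperature to stably hAMY3-expressing cells in DPBS, 0.05% casein, 0.5 mM IBMX; cAMP detected by TR-FRET.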
On the technique in general: cAMP levels reflect the balance of adenylyl cyclase and phosphodiesterase activity.
With `CC[C@H](C)[C@H](NC(=O)[C@H](CCC(N)=O)NC(=O)[C@H](Cc1c[nH]cn1)NC(=O)[C@H](C)NC(=O)[C@H](CC(C)C)NC(=O)[C@H](CCCNC(=N)N)NC(=O)[C@H](CCC(N)=O)NC(=O)[C@@H](NC(=O)[C@@H](NC(=O)[C@@H]1CSSC[C@H](NC(=O)CNC(=O)CC[C@H](NC(=O)CCCCCCCCCCCCCCCCCCC(=O)O)C(=O)O)C(=O)N[C@@H](CCCNC(=N)N)C(=O)N[C@@H](Cc2ccccc2)C(=O)N[C@@H](C)C(=O)N[C@@H]([C@@H](C)O)C(=O)N1)[C@@H](C)O)C(C)C)C(=O)N[C@@H](Cc1ccc(O)cc1)C(=O)N[C@@H](CCC(N)=O)C(=O)N[C@@H](Cc1ccccc1)C(=O)N[C@H](C(=O)N[C@@H](CC(=O)O)C(=O)N[C@@H](CCCCN)C(=O)N[C@@H](CC(=O)O)C(=O)N[C@@H](CCCCN)C(=O)N[C@@H](CC(=O)O)C(=O)N[C@@H](CC(N)=O)C(=O)N[C@H](C(=O)N[C@@H](C)C(=O)N1CCC[C@H]1C(=O)N[C@@H](CCCNC(=N)N)C(=O)N[C@H](C(=O)N[C@@H](CCCCN)C(=O)N[C@H](C(=O)NCC(=O)N1CCC[C@H]1C(=O)N[C@@H](CCC(N)=O)C(=O)NCC(=O)N[C@@H](Cc1ccc(O)cc1)C(N)=O)C(C)C)[C@@H](C)O)C(C)C)[C@@H](C)O` [compound 380] ({C20 diacid-γGlu}-GCRFATCTVQRLAHQIYQFTDKDKDNVAPRTKVGPQGY-NH2; disulfide 2-7), the EC50 was found to be 0.031 nM.

Consider `CC[C@H](C)[C@H](NC(=O)[C@H](CC(N)=O)NC(=O)[C@@H](NC(=O)[C@H](CCCNC(=N)N)NC(=O)[C@@H]1CCCN1C(=O)[C@H](C)NC(=O)[C@@H](NC(=O)[C@H](CC(N)=O)NC(=O)[C@H](CC(=O)O)NC(=O)[C@H](CCCCN)NC(=O)[C@H](CC(=O)O)NC(=O)[C@H](CCCCN)NC(=O)[C@H](CC(=O)O)NC(=O)[C@@H](NC(=O)[C@H](Cc1ccccc1)NC(=O)[C@H](CCC(N)=O)NC(=O)[C@H](Cc1ccc(O)cc1)NC(=O)[C@@H](NC(=O)[C@H](CCC(N)=O)NC(=O)[C@H](Cc1c[nH]cn1)NC(=O)[C@H](C)NC(=O)[C@H](CC(C)C)NC(=O)[C@H](CCCNC(=N)N)NC(=O)[C@H](CCC(N)=O)NC(=O)[C@@H](NC(=O)[C@@H](NC(=O)[C@@H]1CSSC[C@H](NC(=O)CN)C(=O)N[C@@H](CCCNC(=N)N)C(=O)N[C@@H](Cc2ccccc2)C(=O)NCC(=O)N[C@@H]([C@@H](C)O)C(=O)N1)[C@@H](C)O)C(C)C)[C@@H](C)CC)[C@@H](C)O)C(C)C)[C@@H](C)O)C(=O)NCC(=O)N1CCC[C@H]1C(=O)N[C@@H](CC(N)=O)C(=O)NCC(=O)N[C@@H](Cc1ccc(O)cc1)C(N)=O` [compound 381] (H-GCRFGTCTVQRLAHQIYQFTDKDKDNVAPRTNIGPNGY-NH2; disulfide 2-7; N-terminus assumed), for which the EC50 turned out to be 0.032 nM.

For the compound `CC[C@H](C)[C@H](NC(=O)[C@H](CC(N)=O)NC(=O)[C@H](CO)NC(=O)[C@H](CCCNC(=N)N)NC(=O)[C@@H]1CCCN1C(=O)[C@H](C)NC(=O)[C@@H](NC(=O)[C@H](CC(N)=O)NC(=O)[C@H](CC(=O)O)NC(=O)[C@H](CCCCN)NC(=O)[C@H](CC(=O)O)NC(=O)[C@H](CCCCN)NC(=O)[C@H](CC(=O)O)NC(=O)[C@@H](NC(=O)[C@H](Cc1ccccc1)NC(=O)[C@H](CCC(N)=O)NC(=O)[C@H](Cc1ccc(O)cc1)NC(=O)[C@@H](NC(=O)[C@H](CCC(N)=O)NC(=O)[C@H](Cc1c[nH]cn1)NC(=O)[C@H](C)NC(=O)[C@H](CC(C)C)NC(=O)[C@H](CCCNC(=N)N)NC(=O)[C@H](CCC(N)=O)NC(=O)[C@@H](NC(=O)[C@@H](NC(=O)[C@@H]1CSSC[C@H](NC(=O)CN)C(=O)N[C@@H](CCCNC(=N)N)C(=O)N[C@@H](Cc2ccccc2)C(=O)NCC(=O)N[C@@H]([C@@H](C)O)C(=O)N1)[C@@H](C)O)C(C)C)[C@@H](C)CC)[C@@H](C)O)C(C)C)C(=O)NCC(=O)N1CCC[C@H]1C(=O)N[C@@H](CCC(N)=O)C(=O)NCC(=O)N[C@@H](Cc1ccc(O)cc1)C(N)=O` [compound 382] (H-GCRFGTCTVQRLAHQIYQFTDKDKDNVAPRSNIGPQGY-NH2; disulfide 2-7), the EC50 was found to be 0.034 nM.

For `CC[C@H](C)[C@H](NC(=O)[C@H](CCC(N)=O)NC(=O)[C@H](Cc1c[nH]cn1)NC(=O)[C@H](C)NC(=O)[C@H](CC(C)C)NC(=O)[C@H](CCCNC(=N)N)NC(=O)[C@H](CCC(N)=O)NC(=O)[C@@H](NC(=O)[C@@H](NC(=O)[C@@H]1CSSC[C@H](NC(=O)CN)C(=O)N[C@@H](CCCNC(=N)N)C(=O)N[C@@H](Cc2ccccc2)C(=O)NCC(=O)N[C@@H]([C@@H](C)O)C(=O)N1)[C@@H](C)O)C(C)C)C(=O)N[C@@H](Cc1ccc(O)cc1)C(=O)N[C@@H](CCC(N)=O)C(=O)N[C@@H](Cc1ccccc1)C(=O)N[C@H](C(=O)N[C@@H](CC(=O)O)C(=O)N[C@@H](CCCCN)C(=O)N[C@@H](CC(=O)O)C(=O)N[C@@H](CCCCN)C(=O)N[C@@H](CC(=O)O)C(=O)N[C@@H](CC(N)=O)C(=O)N[C@H](C(=O)N[C@@H](C)C(=O)N1CCC[C@H]1C(=O)N[C@@H](CCCNC(=N)N)C(=O)N[C@@H](CO)C(=O)N[C@@H](CCCCN)C(=O)N[C@H](C(=O)N[C@@H](CO)C(=O)N1CCC[C@H]1C(=O)N[C@@H](CC(N)=O)C(=O)NCC(=O)N[C@@H](Cc1ccc(O)cc1)C(N)=O)C(C)C)C(C)C)[C@@H](C)O` [compound 384] (H-GCRFGTCTVQRLAHQIYQFTDKDKDNVAPRSKVSPNGY-NH2; disulfide 2-7; N-terminus assumed), the EC50 was 0.036 nM.

For the compound `CC(C)C[C@H](NC(=O)[C@H](CCCNC(=N)N)NC(=O)[C@H](CCC(N)=O)NC(=O)[C@@H](NC(=O)[C@@H](NC(=O)[C@@H]1CSSC[C@H](NC(=O)CNC(=O)CC[C@H](NC(=O)CCCCCCCCCCCCCCCCCCC(=O)O)C(=O)O)C(=O)N[C@@H](CCCNC(=N)N)C(=O)N[C@@H](Cc2ccccc2)C(=O)NCC(=O)N[C@@H]([C@@H](C)O)C(=O)N1)[C@@H](C)O)C(C)C)C(=O)N[C@@H](C)C(=O)N[C@@H](CC(N)=O)C(=O)N[C@@H](Cc1ccccc1)C(=O)N[C@@H](CC(C)C)C(=O)N[C@@H](Cc1ccc(O)cc1)C(=O)N[C@@H](CCC(N)=O)C(=O)N[C@@H](Cc1ccccc1)C(=O)N[C@H](C(=O)N[C@@H](CC(=O)O)C(=O)N[C@@H](CCCCN)C(=O)N[C@@H](CC(=O)O)C(=O)N[C@@H](CCCCN)C(=O)N[C@@H](CC(=O)O)C(=O)N[C@@H](CC(N)=O)C(=O)N[C@H](C(=O)N[C@@H](C)C(=O)N1CCC[C@H]1C(=O)N[C@@H](CCCNC(=N)N)C(=O)N[C@H](C(=O)N[C@@H](CC(N)=O)C(=O)N[C@H](C(=O)NCC(=O)N1CCC[C@H]1C(=O)N[C@@H](CCC(N)=O)C(=O)NCC(=O)N[C@@H](Cc1ccc(O)cc1)C(N)=O)C(C)C)[C@@H](C)O)C(C)C)[C@@H](C)O` [compound 386] ({C20 diacid-γGlu}-GCRFGTCTVQRLANFLYQFTDKDKDNVAPRTNVGPQGY-NH2; disulfide 2-7), the EC50 was 0.039 nM.

With `CC[C@H](C)[C@H](NC(=O)[C@H](CCCCN)NC(=O)[C@H](CO)NC(=O)[C@H](CCCNC(=N)N)NC(=O)[C@@H]1CCCN1C(=O)[C@H](C)NC(=O)[C@@H](NC(=O)[C@H](CC(N)=O)NC(=O)[C@H](CC(=O)O)NC(=O)[C@H](CCCCN)NC(=O)[C@H](CC(=O)O)NC(=O)[C@H](CCCCN)NC(=O)[C@H](CC(=O)O)NC(=O)[C@@H](NC(=O)[C@H](Cc1ccccc1)NC(=O)[C@H](CCC(N)=O)NC(=O)[C@@H](NC(=O)[C@H](CC(C)C)NC(=O)[C@H](Cc1ccccc1)NC(=O)[C@H](CC(N)=O)NC(=O)[C@H](C)NC(=O)[C@H](CC(C)C)NC(=O)[C@H](CCCNC(=N)N)NC(=O)[C@H](CCC(N)=O)NC(=O)[C@@H](NC(=O)[C@H](C)NC(=O)[C@@H]1CSSC[C@H](NC(=O)[C@H](CCCCN)NC(=O)CC[C@H](NC(=O)CCCCCCCCCCCCCCCCCCC(=O)O)C(=O)O)C(=O)N[C@@H](CC(N)=O)C(=O)N[C@@H](Cc2ccccc2)C(=O)N[C@@H](C)C(=O)N[C@@H]([C@@H](C)O)C(=O)N1)[C@@H](C)O)C(C)C)[C@@H](C)O)C(C)C)C(=O)NCC(=O)N1CCC[C@H]1C(=O)N[C@@H](CCC(N)=O)C(=O)NCC(=O)N[C@@H](Cc1ccc(O)cc1)C(N)=O` [compound 389] ({C20 diacid-γGlu}-KCNFATCATQRLANFLVQFTDKDKDNVAPRSKIGPQGY-NH2; disulfide 2-7), the EC50 was 0.045 nM.

Turning to `CC[C@H](C)[C@H](NC(=O)[C@H](CCCCN)NC(=O)[C@@H](NC(=O)[C@H](CCCNC(=N)N)NC(=O)[C@@H]1CCCN1C(=O)[C@H](C)NC(=O)[C@@H](NC(=O)[C@H](CC(N)=O)NC(=O)[C@H](CC(=O)O)NC(=O)[C@H](CCCCN)NC(=O)[C@H](CC(=O)O)NC(=O)[C@H](CCCCN)NC(=O)[C@H](CC(=O)O)NC(=O)[C@@H](NC(=O)[C@H](Cc1ccccc1)NC(=O)[C@H](CCC(N)=O)NC(=O)[C@H](Cc1ccc(O)cc1)NC(=O)[C@H](CC(C)C)NC(=O)[C@H](Cc1ccccc1)NC(=O)[C@H](Cc1c[nH]cn1)NC(=O)[C@H](C)NC(=O)[C@H](CC(C)C)NC(=O)[C@H](CCCNC(=N)N)NC(=O)[C@H](CCC(N)=O)NC(=O)[C@@H](NC(=O)[C@@H](NC(=O)[C@@H]1CSSC[C@H](NC(=O)CNC(=O)CC[C@H](NC(=O)CCCCCCCCCCCCCCCCCCC(=O)O)C(=O)O)C(=O)N[C@@H](CCCNC(=N)N)C(=O)N[C@@H](Cc2ccccc2)C(=O)NCC(=O)N[C@@H]([C@@H](C)O)C(=O)N1)[C@@H](C)O)C(C)C)[C@@H](C)O)C(C)C)[C@@H](C)O)C(=O)NCC(=O)N1CCC[C@H]1C(=O)N[C@@H](CCC(N)=O)C(=O)NCC(=O)N[C@@H](Cc1ccc(O)cc1)C(N)=O` [compound 390] ({C20 diacid-γGlu}-GCRFGTCTVQRLAHFLYQFTDKDKDNVAPRTKIGPQGY-NH2; disulfide 2-7), the EC50 was found to be 0.048 nM.
